Structures can show the parent of a compound that is named as a salt.
Assays:
[1] = target: T1, purified human recombinant aldose reductase (Homo sapiens, UniProt P15121); assay: Aldose reductase (AR) inhibition, spectrophotometric NADPH oxidation assay; format: biochemical; conditions: for IC50: read-out: Aldose reductase inhibitory IC50
T1 construct: made in house; host or cells: E. coli
Source text: For enzyme inhibition studies, purified human recombinant aldose reductase (expressed in E. coli) was used for testing the aldose reductase (AR) inhibitory activity of beta adrenergic antagonists by a spectrophotometric method, using glyceraldehydes as substrate, (Mol. Vis. 2004, 10, 148-154). Recombinant human aldose reductase was purified from bacterial cultures. Enzyme from expression cultures was extracted and purified essentially as described previously (J Biol Chem 1992; 267: 24833-40) with the exception that affinity chromatography over AffiGel Blue (Bio-Rad) was used as a final purification step. AR activity was assayed according to the method described by Hayman and Kinoshita (J Biol Chem 1965; 240: 877-82). The assay mixture in 1 ml contained 50 μM potassium phosphate buffer pH 6.2, 0.4 mM lithium sulfate, 5 μM 2-mercaptoethanol, 10 μM DL-glyceraldehyde, 0.1 μM NADPH, and enzyme preparation (rat lens or recombinant enzyme). Appropriate blanks were employed for corrections. The assay mixture was incubated at 37° C. and initiated by the addition of NADPH at 37° C. The change in the absorbance at 340 nm due to NADPH oxidation was followed in a Cary Bio 100 spectrophotometer. For inhibition studies concentrated stocks of the Beta adrenergic antagonists, timolol, esmolol, sotalol, nebivolol, carvedilol, metoprolol and labetalol were prepared in water. Various concentrations of Beta adrenergic antagonists, as test compounds, were added to the assay mixture and incubated for 5-10 minutes before initiating the reaction by NADPH as described above. The percent of inhibition with test compounds was calculated considering the AR activity in the absence of inhibitor was 100%. The concentration of each test sample giving 50% inhibition (IC50) was then estimated.

[2] = system: formation of sorbitol in red blood cells (RBC); assay: Estimation of sorbitol in red blood cells incubated with 30 mM glucose; format: cell-based
Protocol: The cells were incubated with 30 mM glucose in vitro. Sorbitol was estimated by the method of reported by Malone, et al. Diabetes; 1980; 29: 861-864.

[3] = system: wound on dorsal skin of diabetic Wistar rats; assay: Diabetic wound healing in streptozocin-diabetic rats, topical treatment; format: in vivo; conditions: for Wound diameter: diabetic rats, topical
Protocol: Wistar rats were kept in standard autoclaved rodent cages with ad libitum food (Harland Tekland Irradiated Rodent Diet) and autoclaved water. The rats were housed on Harlan Tek-chip pelleted paper in static micro isolators maintained at 72° F., 60% humidity, and a 12 hour light cycle. The animals were kept at the facility for 10 days to get accustomed to the environment, after the arrival from the vendor. Diabetes was induced in the rats by intraperitoneal injection of 50 mg/kg body weight of streptozocin on 5 consecutive days. The wound was created on the rat by using a contortive scratcher to make a 2 mm incision with 0.57-0.62 mm depth on the dorsal skin of the animal. The area was shaved and sanitized with normal lugol's iodine prior to use of the scratcher.
Esmolol hydrochloride (10%) was administered three times daily or the standard treatment control, by smearing the agent directly onto the wound. The positive control used was platelet derived growth factor that is commercially available. The treatment was continued until the wounds of the treated mice were completely healed. […]
Several wound healing parameters were measured on the day 3, day 7, day 12 and day 19 of the creation of the wound. These parameters are reported in separate tables below. The wound size and weight of the rats was measured every alternate day. Specifically, the length and width of the wound were measured by use of micro vernier calipers, and the tensile strength at the edge of the wound was also recorded every other day. The wound diameter was measured by the same investigator on day 3, 12, 19 by the use of an electronic digital vernier caliper (B&D, Pomanus, N.J.). The caliper was calibrated just before the measurement by adjusting the zero error. […]
The area for evaluation was cut clean by an Eppendorf 10 size scalpel and the tissue was preserved in 10% of phosphate buffered formalin solution. The tissues were removed from this formalin solution and immersed in 100% of ethanol for 6 hours. The tissue were again removed and preserved for evaluation in 10% Bouins solution. […]
The quantity of exudation from wound was measured by the use of a micropipette (Eppendorf). […]
The adherence is the strength by which the two ends of the wound are attached together and measured by a Velcro index meter.
Fluid accumulation was measured by volume of fluid obtained from wound using micro pipette as described in Table 8. […]

[4] = system: nitric oxide (nitrate/nitrite); assay: Measurement of nitric oxide (nitrite/nitrate) in tissue by chemiluminescence; format: in vivo, rat; conditions: total versus controls
Protocol: Fresh tissue (approximately 0.2 g) was added to 1 ml cold homogenizing buffer (20 mmol/l HEPES-KOH, pH 7.9; 25% glycerol; 420 mmol/l NaCl; 1.5 mmol/l MgCl2; 0.2 mmol/l EDTA; 0.5 mmol/l dithiothreitol; 0.2 mmol/l phenylmethylsulphonyl fluoride). The buffered tissues were homogenized at maximum speed for 5 seconds and cooled in ice-water for 30 seconds. This procedure was repeated five times to ensure complete tissue destruction.
Two volumes of 100% cold ethanol were added to the homogenized samples; these were vortexed and incubated on ice for 30 minutes. The homogenate was centrifuged at 12,000×g for 5 minutes at 4° C., and the supernatant transferred to a new tube on ice for NO measurement.
A rapid-response chemiluminescence analyzer was used to measure total gas phase NO (nitrate/nitrite). NO gas reacts with ozone, producing energy in the form of light, and the light is proportional to the quantity of NO present. The emission was measured using a luminometer to determine NO concentration.
The sample tube was securely connected to a Zero Gas Filter (Sievers Instruments) and room air passed through the device for 5 minutes. […] The sample gas was then exposed to the ozone in the reaction vessel to form activated nitrogen dioxide (NO2), which was detected using a red-sensitive photomultiplier tube, and the output recorded using an integrating pen recorder. […]

[5] = system: collagen (hydroxyproline); assay: Measurement of collagen (tissue hydroxyproline by HPLC); format: in vivo, rat; set-up: Collagen production: unit not given here
Source text: The synthesis of the 19 known collagens occurs within the cell, as it does for other proteins. The collagen molecule is characterized by the repeating sequence Gly-X-Y, with X often being proline and Y often being hydroxyproline. Hydroxyproline is the end product of collagen breakdown. For this reason, tissue hydroxyproline level is an indirect and objective variable of tissue collagen production. In many experimental studies, hydroxyproline has been used to assess tissue collagen production.
Collagen levels in the tissue were measured by use of high performance liquid chromatography (HPLC) for separating and quantitating the levels of hydroxyproline from the rat tissue. A reverse-phase Nova-Pak C18 column and solvent system (140 mM sodium acetate, 0.05% triethylamine (TEA), 6% acetonitrile) were used, resulting in complete separation of hydroxyproline. Recovery of standards ranged from 89 to 103% and intra-assay variability was <8%. Additionally, [^3H]hydroxyproline measurements were used to examine changes in collagen turnover in the rat labeled with [^3H]proline and “chased” in the presence of 10 mM unlabeled proline.

COCCc1ccc(OCC(O)CNC(C)C)cc1 (centres unmarked) [Metoprolol, metoprolol tartrate]
IC50 [1]: > 350 µM

CC(C)NCC(O)c1ccc(NS(C)(=O)=O)cc1 (centres unmarked) [Sotalol, sotalol hydrochloride]
IC50 [1]: > 350 µM

CC(C)(C)NC[C@H](O)COc1nsnc1N1CCOCC1 [Timolol, timolol maleate]
aldose reductase inhibition (in words) [1]: effective aldose reductase inhibition | IC50 [1]: 250 µM | Sorbitol concentration in RBC ([2]; RBC under 30 mM glucose + 250 μM of timolol): 17.34 µg/mL

CC(C)NCC(O)COc1cccc2ccccc12.Cl (centres unmarked) [Propranolol, propranolol hydrochloride]
aldose reductase inhibition (in words) [1]: effective aldose reductase inhibition | IC50 [1]: 350 µM | Sorbitol concentration in RBC ([2]; RBC under 30 mM glucose + 350 μM of propranolol): 18.25 µg/mL

OC(CNCC(O)C1CCc2cc(F)ccc2O1)C1CCc2cc(F)ccc2O1 (centres unmarked) [Nebivolol, nebivolol hydrochloride]
IC50 [1]: > 350 µM

COc1ccccc1OCCNCC(O)COc1cccc2[nH]c3ccccc3c12 (centres unmarked) [Carvedilol, carvedilol]
IC50 [1]: > 350 µM

COC(=O)CCc1ccc(OCC(O)CNC(C)C)cc1 (centres unmarked) [Esmolol, esmolol hydrochloride]
aldose reductase inhibition (in words) [1]: effective aldose reductase inhibition | IC50 [1]: 160 µM | Sorbitol concentration in RBC ([2]; RBC under 30 mM glucose + 150 μM of esmolol): 16.16 µg/mL | Ease of removal from wounds ([3]; Day 3): 2.6 +/− 0.2 | Evaluation of biopsy wounds in diabetic rats ([3]; Day 3): 1.3 +/− 0.3 | Exudation ([3]; Day 3): 1.2 ± 0.2 µL | Film transparency ([3]; Day 3): 1.7 +/− 0.3 | Flexibility ([3]; Day 3): 2.3 +/− 0.2 | Fluid accumulation ([3]; Day 3): 2.3 +/− 0.4 | Wound adherence ([3]; Day 3): 2.6 +/− 0.4 | Wound diameter: degree of contraction ([3]; Day 3): 12.17 +/− 5.8% | Wound diameter ([3]; Day 3): 1.28 +/− 0.12 MM | Ease of removal from wounds ([3]; Day 7): 2.8 +/− 0.3 | Evaluation of biopsy wounds in diabetic rats ([3]; Day 7): 1.3 +/− 0.2 | Exudation ([3]; Day 7): 2.7 ± 0.5 µL | Film transparency ([3]; Day 7): 2.3 +/− 0.4 | Flexibility ([3]; Day 7): 2.4 +/− 0.5 | Fluid accumulation ([3]; Day 7): 2.7 +/− 0.5 | Wound adherence ([3]; Day 7): 3.3 +/− 0.3 | Ease of removal from wounds ([3]; Day 12): 2.7 +/− 0.5 | Evaluation of biopsy wounds in diabetic rats ([3]; Day 12): 1.4 +/− 0.3 | Exudation ([3]; Day 12): 3.5 ± 0.6 µL | Film transparency ([3]; Day 12): 2.6 +/− 0.6 | Flexibility ([3]; Day 12): 3.5 +/− 0.6 | Fluid accumulation ([3]; Day 12): 2.6 +/− 0.7 | Wound adherence ([3]; Day 12): 3.9 +/− 0.5 | Wound diameter: degree of contraction ([3]; Day 12): 41.86 +/− 13.2% | Wound diameter ([3]; Day 12): 1.37 +/− 0.17 MM | Ease of removal from wounds ([3]; Day 19): 2.5 +/− 0.4 | Evaluation of biopsy wounds in diabetic rats ([3]; Day 19): 1.5 +/− 0.3 | Exudation ([3]; Day 19): 4.9 ± 0.2 µL | Film transparency ([3]; Day 19): 3.3 +/− 0.4 | Flexibility ([3]; Day 19): 3.9 +/− 0.8 | Fluid accumulation ([3]; Day 19): 2.5 +/− 0.5 | Wound adherence ([3]; Day 19): 4.7 +/− 0.5 | Wound diameter: degree of contraction ([3]; Day 19): 98.64 +/− 9.6% | Wound diameter ([3]; Day 19): 0.79 +/− 0.28 MM | Ease of removal from wounds ([3]; Total): 10.6 +/− 1.4 | Evaluation of biopsy wounds in diabetic rats ([3]; Total): 5.5 +/− 1.1 | Exudation ([3]; Total): 12.3 ± 1.1 µL | Film transparency ([3]; Total): 9.9 +/− 1.1 | Flexibility ([3]; Total): 12.1 +/− 2.9 | Fluid accumulation ([3]; Total): 10.1 +/− 1.2 | Wound adherence ([3]; Total): 14.5 +/− 0.9 | Period for epithelization ([3]; rat, in vivo): 9.8 ± 0.8 days | Scar formation ([3]; rat, in vivo): 1.3 +/− 0.4 Score | Time taken for complete wound closure ([3]; rat, in vivo): 19.6 ± 2.2 days | NO increase, % Increase [4]: 53% | Collagen production ([5]; Day 3): 124 | Collagen production ([5]; Day 7): 287 | Collagen production ([5]; Day 12): 325 | Collagen production ([5]; Day 19): 288 | Collagen production ([5]; Total): 1024 | Collagen production, % Increase ([5]; total versus controls): 68%

CC(CCc1ccccc1)NCC(O)c1ccc(O)c(C(N)=O)c1 (centres unmarked) [Labetalol, labetalol hydrochloride]
IC50 [1]: > 350 µM

Reference: US8686051B2, “Pharmaceutical composition for treatment of diabetic complications” (VLife Sciences Technologies Pvt. Ltd., priority 2007, dated 2014)
